Data reported in patent publication US8362033B1, “Compounds and methods to dysregulate CA2+ homeostasis for cancer treatment” (University of South Florida, priority 2008, dated 2013).
Where two headings read alike, the source gives them in different places.

Legend:
U937 cells [1] = assay: Cell death by ER stressors in suspension or fibronectin-adhered U937 cells; format: cell-based; conditions: for Cell death in suspension and fibronectin adhered tumor cells: FIGS. 2(a)-(c); for Difference in viability between suspension and fibronectin-adherent cells: concentration range tested
Description: FIGS. 2(a)-(c) are graphs showing agents which evoke ER stress overcome cell adhesion mediated drug resistance in U937 cells. Percent of specific cell death induced in U937 cells in suspension (Suspension) or following adhesion to plates coated in fibronectin (Fibronectin) as a result of incubation in (A) tunicamycin, (B) thapsigargin, or (C) brefeldin A at the indicated concentrations.

TRPM7 = molecular target: T1, TRPM7 (Homo sapiens, UniProt Q96QT4); conditions: cited from earlier work; for Inhibition of TRPM7 channels at 10 μM / Concentration required to inhibit TRPM7: HEK-293 cells
T1 construct: host or cells: HEK-293 (heterologous expression, in the cited studies)
T1 sequence (Q96QT4 whole entry, species assumed): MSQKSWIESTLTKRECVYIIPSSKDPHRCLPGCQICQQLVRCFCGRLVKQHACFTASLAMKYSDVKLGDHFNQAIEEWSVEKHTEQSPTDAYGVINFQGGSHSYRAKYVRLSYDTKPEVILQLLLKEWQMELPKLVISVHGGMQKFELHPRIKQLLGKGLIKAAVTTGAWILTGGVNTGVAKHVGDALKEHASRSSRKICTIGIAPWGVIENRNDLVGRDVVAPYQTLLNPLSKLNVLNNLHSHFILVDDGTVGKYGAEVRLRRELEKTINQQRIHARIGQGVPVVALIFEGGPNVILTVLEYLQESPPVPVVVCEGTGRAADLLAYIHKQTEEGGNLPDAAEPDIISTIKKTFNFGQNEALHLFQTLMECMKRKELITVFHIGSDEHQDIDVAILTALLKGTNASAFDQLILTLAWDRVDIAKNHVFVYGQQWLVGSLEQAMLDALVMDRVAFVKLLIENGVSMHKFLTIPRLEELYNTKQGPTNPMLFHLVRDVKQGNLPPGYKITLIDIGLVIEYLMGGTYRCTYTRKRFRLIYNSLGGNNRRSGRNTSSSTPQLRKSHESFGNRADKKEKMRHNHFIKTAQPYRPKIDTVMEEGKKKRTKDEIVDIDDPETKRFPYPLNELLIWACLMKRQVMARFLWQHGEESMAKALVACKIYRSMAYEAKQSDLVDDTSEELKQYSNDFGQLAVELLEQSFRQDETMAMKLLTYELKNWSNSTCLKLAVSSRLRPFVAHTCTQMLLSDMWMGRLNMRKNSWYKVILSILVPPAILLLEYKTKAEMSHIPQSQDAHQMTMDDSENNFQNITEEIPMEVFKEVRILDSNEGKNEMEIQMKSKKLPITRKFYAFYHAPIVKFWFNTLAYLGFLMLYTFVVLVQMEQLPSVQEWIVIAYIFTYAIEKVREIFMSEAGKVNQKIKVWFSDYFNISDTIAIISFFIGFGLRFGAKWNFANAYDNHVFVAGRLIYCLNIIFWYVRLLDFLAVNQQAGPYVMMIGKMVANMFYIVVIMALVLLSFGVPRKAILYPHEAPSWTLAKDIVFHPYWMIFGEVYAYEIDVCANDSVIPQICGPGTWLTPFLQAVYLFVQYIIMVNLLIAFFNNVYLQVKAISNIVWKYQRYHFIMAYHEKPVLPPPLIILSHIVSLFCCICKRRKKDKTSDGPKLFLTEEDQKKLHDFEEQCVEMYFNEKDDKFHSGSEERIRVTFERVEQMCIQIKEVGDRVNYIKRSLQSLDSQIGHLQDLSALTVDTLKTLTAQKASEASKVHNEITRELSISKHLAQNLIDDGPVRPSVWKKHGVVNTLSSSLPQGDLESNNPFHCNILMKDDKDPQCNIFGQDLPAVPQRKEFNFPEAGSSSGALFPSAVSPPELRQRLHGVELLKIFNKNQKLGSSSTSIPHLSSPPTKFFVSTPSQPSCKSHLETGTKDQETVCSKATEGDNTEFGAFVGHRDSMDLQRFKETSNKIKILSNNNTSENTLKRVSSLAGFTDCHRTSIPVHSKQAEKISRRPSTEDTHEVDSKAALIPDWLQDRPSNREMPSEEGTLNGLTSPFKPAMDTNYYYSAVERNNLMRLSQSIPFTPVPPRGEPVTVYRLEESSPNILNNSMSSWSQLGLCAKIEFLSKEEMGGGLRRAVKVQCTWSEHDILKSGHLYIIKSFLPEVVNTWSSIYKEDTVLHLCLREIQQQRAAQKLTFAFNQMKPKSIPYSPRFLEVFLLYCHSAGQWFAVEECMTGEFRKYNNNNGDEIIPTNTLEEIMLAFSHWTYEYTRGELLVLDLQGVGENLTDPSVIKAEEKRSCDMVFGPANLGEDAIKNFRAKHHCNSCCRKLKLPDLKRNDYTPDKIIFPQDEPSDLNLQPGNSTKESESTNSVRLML

8226 cells = assay: Fura-2 intracellular Ca2+ fluorometry in 8226 cells; format: cell-based, human
Description: (§1) Fura-2 loading was carried out incubating the plated cells for 1 hour at room temperature in physiological saline solution (PSS) consisting of (in mM): 140 NaCl, 3 KCl, 2.5 CaCl2, 1.2 MgCl2, 7.7 glucose and 10 HEPES (pH to 7.2 with NaOH), which also contained 1 μM of the membrane permeable ester form of fura-2, acetoxymethylester (fura-2 AM) fura-2 acetoxymethylester (fura-2 AM, +0.1% DMSO) and 0.1% dimethyl sulfoxide (DMSO). The coverslips were then washed in PSS (fura-2-AM free) prior to the experiments being carried out.
(§2) A DG-4 high-speed wavelength switcher (Sutter Instruments Co., Novato, Calif.) was used to apply alternating excitation light, and fluorescent emission was captured using a Sensicam digital CCD camera (Cooke Corporation, Auburn Hills, Mich.) and recorded with Slidebook 3.0 software (Intelligent Imaging Innovations, Denver, Colo.).

U937 cells [2] = conditions: 5 μM tipifarnib, adhered U937 cells, p<0.001
Description: as §1, §2
(§3) Therefore, the effects of tipifarnib on intracellular Ca^2+ concentrations in tumor cells were studied in adhered U937 leukemic cells using fura-2 mediated Ca^2+ fluorometry.

U937 cells [3] = assay: Fura-2 intracellular Ca2+ fluorometry in adhered U937 cells; conditions: 5 μM tipifarnib, 10 μM FTI-277, 10 μM FTI-2153
Description: as §1, §2, §3

Orai 1 channels = Orai 1 channels (Homo sapiens, UniProt Q96D31); conditions: endogenously and exogenously expressed; cited from earlier work
Sequence of Orai 1 channels (Q96D31 whole entry): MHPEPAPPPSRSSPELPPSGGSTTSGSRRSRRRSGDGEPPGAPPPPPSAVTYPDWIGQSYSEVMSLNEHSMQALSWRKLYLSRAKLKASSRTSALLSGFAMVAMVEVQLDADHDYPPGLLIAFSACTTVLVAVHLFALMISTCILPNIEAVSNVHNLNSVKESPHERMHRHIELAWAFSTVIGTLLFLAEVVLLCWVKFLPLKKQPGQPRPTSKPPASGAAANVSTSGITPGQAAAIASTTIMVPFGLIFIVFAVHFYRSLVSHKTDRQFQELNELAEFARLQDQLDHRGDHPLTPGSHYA

Orai3 channels = Orai3 channels (Homo sapiens, UniProt Q9BRQ5); conditions: up to 200 μM; cited from earlier work
8226/R5 cells = assay: Fura-2 intracellular Ca2+ fluorometry in tipifarnib-resistant 8226/R5 cells; format: cell-based, human; conditions: 5 μM tipifarnib with 100 μM 2-APB
Description: as §1, §2

U937 cells [4] = assay: MTT cytotoxicity / growth rate assay; format: cell-based
Description: Cytotoxicity analysis was determined by using the 3-(4,5-dimethylthiazol-2-yl)-2,5-diphenyltetrazolium bromide (MTT) dye reduction assay as previously described (Damiano J S, et al. Cell adhesion mediated drug resistance (CAM-DR): role of integrins and resistance to apoptosis in human myeloma cell lines. Blood. 1999 Mar. 1; 93(5):1658-67). For all cytotoxicity studies cells were exposed to both calcium modulating agents and tipifarnib simultaneously for 72 hours. After 72 hours at 37° C., 50 μl of MTT (Sigma Chemical) was added to each well and cells were incubated for an additional four hours. Plates were spun for 5 minutes at 1200 rpm in a Sorvall RT6000D table top centrifuge (Asheville, N.C.), supernatants were removed, and water-insoluble product was dissolved in 100 μl of 100% DMSO. Plates were shaken for 30 seconds and absorbance read at 540 nm on a Wallac Victor-2 1420 Multilabel Counter (PerkinElmer, Torrance, Calif.). All experiments were done in triplicate.
The effects of the Ca^2+ channel inhibition, using La^3+ and Gd^3+, were tested on survival of U937 cells.

TRPM2 = conditions: cited from earlier work
Orai2 = Orai2 (Homo sapiens, UniProt Q96SN7); conditions: cited from earlier work
Sequence of Orai2 (Q96SN7 whole entry, species assumed): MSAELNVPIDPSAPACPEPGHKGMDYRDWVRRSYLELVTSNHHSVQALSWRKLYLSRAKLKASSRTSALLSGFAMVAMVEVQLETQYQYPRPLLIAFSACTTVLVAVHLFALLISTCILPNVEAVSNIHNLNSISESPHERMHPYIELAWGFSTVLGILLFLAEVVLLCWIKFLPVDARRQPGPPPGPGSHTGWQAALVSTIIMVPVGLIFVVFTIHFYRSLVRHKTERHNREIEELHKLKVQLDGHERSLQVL

In the case of tunicamycin, the “Cell death in suspension and fibronectin adhered tumor cells” value (“Cell death” for short) (U937 cells [1]) is reported as “dose dependent increase in cell death” and the “Difference in viability between suspension and fibronectin-adherent cells” value (shortened to “Difference”) (U937 cells [1]) is reported as “no significant difference”.
For `C/C=C(/C)C(=O)O[C@H]1C(C)=C2[C@H]([C@@H]1OC(=O)CCCCCCC)[C@@](C)(OC(C)=O)C[C@H](OC(=O)CCC)[C@@]1(O)[C@H]2OC(=O)[C@@]1(C)O` [thapsigargin], the “Cell death” value (U937 cells [1]) was “dose dependent increase in cell death” and the “Difference” value (U937 cells [1]) was “no significant difference”.
In the case of `[Gd+3]` [Gd^3+], the “Inhibition of TRPM7 channels at 10 μM” value (TRPM7) is given as “failed to inhibit TRPM7 channels” and the “Concentration required to inhibit TRPM7” value (TRPM7) is given as 1 mM.
In the case of `Cn1cncc1[C@@](N)(c1ccc(Cl)cc1)c1ccc2c(c1)c(-c1cccc(Cl)c1)cc(=O)n2C` [tipifarnib, Tipifarnib], the “Amplitude of the [Ca2+]i response” value (8226 cells; 5 µM) is reported as 215 ± 17 nM, the “Change in [Ca2+]i in 8226 cells, greater than in 8226/R5 cells” value (8226 cells; 5 μM tipifarnib) is reported as greater than 250% and the “Increase in [Ca2+]i relative to vehicle alone (DMSO)” value (U937 cells [2]) is reported as “more than 5 fold”.
With `COC(=O)[C@H](CCSC)NC(=O)c1ccc(NC[C@@H](N)CS)cc1-c1ccccc1` [FTI-277] the “Elevation of [Ca2+]i” value (U937 cells [3]) was “failed to stimulate elevations in [Ca^2+]i”.
For `NCCOB(c1ccccc1)c1ccccc1` [2-APB, 2-aminoethoxydiphenyl borate], the “Modulation of Orai1 channels by 2-APB” value (Orai 1 channels) is listed as “potentiated at concentrations of 2-APB below 5 μM but inhibited by higher concentrations”, the “Modulation of Orai3 channels by 2-APB” value (Orai3 channels) is listed as “potentiated by 2-APB even at 50 μM and do not seem to be blocked by concentrations as high as 200 μM” and the “Amplification of tipifarnib-evoked increase in [Ca2+]i by 2-APB” value (8226 cells; 8226 cells, 5 μM tipifarnib with 100 μM 2-APB) is listed as roughly 400%. The “Amplification of tipifarnib-evoked increase in [Ca2+]i by 2-APB” value (8226/R5 cells) was roughly 250%, the “Block of TRPM7-evoked currents” value (TRPM7; 100 μM 2-APB) was roughly 25% and the “Effect of modulator on tipifarnib-induced growth inhibition / cell survival” value (U937 cells [4]) was “enhanced cell death”. The “Block of TRPM2 channels at 150 μM (second study)” value (TRPM2; HEK-293 cells, 150 μM 2-APB) was “not blocked”, the IC50 (TRPM2; heterologously expressed in HEK-293 cells, read-out: IC50 for block of TRPM2 channels) was 1000 nM and the “Modulation of Orai2 by 2-APB” value (Orai2) was “transient potentiation at concentrations of 2-APB≦20 μM and also blocked by higher concentrations”.
For `[Cl][La]([Cl])[Cl]` [La^3+, lanthanum chloride], the “Inhibition of TRPM7 channels at 10 μM” value (TRPM7) is listed as “failed to inhibit TRPM7 channels”, the “Concentration required to inhibit TRPM7” value (TRPM7) is listed as 1 mM and the “Effect of modulator on tipifarnib-induced growth inhibition / cell survival” value (U937 cells [4]; U937 cells, MTT, 72 hours, 200 nM La3+, Gd3+ 100, ruthenium red 100 nM, 2-APB 5 μM and 100 μM) is listed as “statistically significant increase in survival of U937 cells”. For the same compound, the “Inhibition of TRPM2 channels” value (TRPM2; La3+ ≦100 μM) was “not inhibited”.
In the case of `C[C@H]1CCC/C=C/[C@@H]2C[C@H](O)C[C@H]2[C@H](O)/C=C/C(=O)O1` [Brefeldin A], the “Cell death” value (U937 cells [1]) is reported as “dose dependent increase in cell death” and the “Difference” value (U937 cells [1]) is reported as “no significant difference”.
